Results reported in patent US10849966B2, “Methods for treating netosis and neutrophil activation” (TRUSTEES OF BOSTON UNIVERSITY, priority 2017, dated 2020).
Values joined by “and” are separate entries in the source; they are usually repeats but may differ in a detail not shown here. Equal values may be shown once. “Also recorded” adds a separate entry of the source.

What was measured:
[1] = system: chronic kidney disease in Tg25+ male rats; test: CKD in Tg25+ male rats fed a HSD; assay type: in vivo, rat; conditions: hu-6g8 3 mg/kg IV at D0, D7, D14 and D21, Mean ± SD
[2] = complete blood counts in Panc1-CSC xenograft (CDX) tumor model; assay type: in vivo, rat; conditions: CBC weekly from day 21, vs non-treated controls
Description: Complete blood counts (CBC) were measured weekly starting day 21-1 week after treatment onset on day 14 (14 days after Panc1-CSC xenograft (CDX) tumor establishment).

[3] = system: activated neutrophils; test: dose-response survival assay of activated neutrophils (Trypan blue dye exclusion); assay type: cell-based; conditions: live cells counted by Trypan blue dye exclusion; listed as 6g8-humab; read-out: IC50, inhibition of activated neutrophil survival
From the text: FIG. 6 depicts a graph comparison of functional activity of anti-DEspR fully humanized 6g8 mAb, 6g8-humab, and prototype murine anti-DEspR 6g8 mAb, 6g8-mumab.
FIGS. 17A-17C depict anti-DEspR-mab (hu6g8 mab). FIG. 17A depicts a diagram of DEspR, murine precursor mabs and humanized IgG and IgG4 mabs. Hu6g8 is notated as 6g8g7-hu-IgG4 raised against epitope 2, spanning the putative binding domain.
Described herein are the advantages of anti-DEspR mAb targeted AECs. DEspR, the dual endothelin1/signal peptide receptor,^9 is a validated target on human activated neutrophils and NETs. Hu6g8 binds human activated neutrophils (FIG. 18A) and NETs (FIG. 18B), as confirmed by Western Blot analysis of DEspR protein in human kidney (K), and activated neutrophil samples, act-Ns (FIG. 18C). Humanized anti-DEspR-mab (hu6g8 mab) is an ideal targeting moiety. Hu6g8 is the multi-species Human/NHPrimate/Rat reactive humanized-deimmunized anti-DEspR-mab with a hinge-stabilized IgG4S228P/kappa Fc region (FIG. 17A) to avoid (ADCC-antibody dependent cell-mediated cytotoxicity, CDC-complement dependent cytotoxicity), and to eliminate loss of targeting upon Fab arm exchange typical of native IgG4 isotype. […] Through recombinant DNA technology, the antibody design incorporates: a) avoidance of T-cell epitopes for low immunogenicity; b) optimization of heavy and light chain interactions for stability of variable domains; and, c) exclusion of destabilizing post-translational modification sites [e.g., deamidation, oxidation]. The targeting of DEspR^+ NETs, but sparing of DEspR(−) quiescent neutrophils via the anti-DEspR mAb is also novel. […] The use of human neutrophil-elastase cleavable linker is advantageous as this connector-peptide can be added by recombinant technology and HNE is enriched on NETs and actually a reason for the injurious properties of NETs. HNE is desirable for local therapeutic delivery [Owen C A, Campbell E J. J Leukocyte Biol 1999, 65 (2) 137-150], has specificity for small uncharged amino acids particularly alanine (A) and valine (V) [Meers P. Adv Drug Delivery Rev. 2001. 53 (3) 265-272]. […] The advantages of all three in an AEC is novel and robust as the targeted delivery and release of DNAse 1 on NETs can attain in vivo efficacy of what has been shown in vitro, the induction of macrophage uptake-and-clearance of NETs upon DNAse 1 digest of NETs DNA. In summary, targeting the intravascular NETs sites. The humanized anti-DEspR-mab with a hinge-stabilized IgG4/kappa Fc region to avoid Fab arm exchange in vivo and ensuing loss of targeting was selected. Additionally, this avoids immune effector functions of IgG1 mAbs (ADCC, CDC), which would worsen endothelial injury. […]

[4] = system: Panc1 xenograft; test: Panc1 xenograft model survival; conditions: in vivo
[5] = PK study in Panc1 xenograft mice; assay type: in vivo; conditions: 15 mg/kg i.v. (n=3)
[6] = system: chronic kidney disease in Dahl S female rats; test: CKD in Dahl S female rats fed a HSD; assay type: in vivo, rat; conditions: for albuminuria, effect in words / urinary albumin creatinine ratio (UACR), effect in words: 3 mg/kg iv × 1 dose, after 7 days, moderate-severe CKD; for Albuminuria / Creatinine Clearance / UACR (urinary albumin/urinary creatinine ratio) / Urinary Exosome Excretion: Mean ± SD
From the text: Legend: hu-6g8, humanized anti-DEspR monoclonal antibody, HSD, high salt diet induced via 2% NaCl water to drink ad lib; CKD, Dahl salt-sensitive hypertensive rats with chronic kidney disease with moderate nephrosclerosis (Raij scores˜300) induced with a high salt diet (2% NaCl); control, non-treated age- and sex-matched CKD rats.

[7] = system: DEspR+/CD11b+ neutrophils; test: ex vivo treatment of ARDS patient whole blood, neutrophil survival (FACS); assay type: cell-based, human; set-up: baseline DEspR+/CD11b+ neutrophil percentage: concentration or dose not given beside the values; conditions: for Observed decrease in neutrophil survival: 10 μg/ml; for baseline DEspR+/CD11b+ neutrophil percentage: equals baseline DEspR+/CD11b+ neutrophils
Description: Neutrophils were gated for unique size/granularity properties via FSC (size) and SSC (granularity) gating. […] FSC, forward side scatter. SSC, side scatter. N=4-5 replicates; mean+/−SD. Whole blood incubated at 37 C for 24 hours (reg incubator, rotating, in HEPES buffer) for A02 and A03. 37 C for 6 hours for A04, A05, and A06. ABTM-468(cho) at 10 ug/mL. *, P=0.0286 Mann-Whitney Rank Sum Test. ARDS patients survivors: A01, A04, A05, A06. ARDS non-survivor: A02.

Question: What does the source list for “hu-6g8: fully humanized anti-DEspR mAb with a S228P hinge-stabilized IgG4/kappa FC region”?
Answer: Albuminuria ([1]; D14): 217 ± 87 mg/kg/day; Creatinine Clearance ([1]; D14): 279 ± 82 µL/min; UACR (urinary albumin/urinary creatinine ratio) ([1]; D14): 8309 ± 3731; Urinary Exosome Excretion ([1]; D14): 771 ± 220 mg/kg/day; Albuminuria ([1]; D28): 164.8 ± 86 mg/kg/day; Creatinine Clearance ([1]; D28): 268 ± 30 µL/min; UACR (urinary albumin/urinary creatinine ratio) ([1]; D28): 5567 ± 2210; Urinary Exosome Excretion ([1]; D28): 651 ± 191 mg/kg/day; numbers of quiescent neutrophils (neutropenia side effect) ([2]; treatment onset day 14): does not cause decreased numbers of quiescent neutrophils; platelet counts [2]: does not cause decreased platelet counts; red blood cell counts [2]: does not cause decreased platelet counts or red blood cell counts; IC50 [3]: < 8 nM and 7.7 nM; survival [4]: increased survival; half-life [5]: 40.8 h; albuminuria, effect in words [6]: decreased; urinary albumin creatinine ratio (UACR), effect in words [6]: decreased; albuminuria, effect in words ([6]; listed as ABTM-468): decreased; also recorded: reduced; urinary albumin creatinine ratio (UACR), effect in words ([6]; listed as ABTM-468): decreased; also recorded: reduced; Albuminuria ([6]; D7 (day of dosing, baseline)): 404 ± 190 mg/kg/day; Creatinine Clearance ([6]; D7 (day of dosing, baseline)): 104 ± 35 µL/min; UACR (urinary albumin/urinary creatinine ratio) ([6]; D7 (day of dosing, baseline)): 25450 ± 8980; Urinary Exosome Excretion ([6]; D7 (day of dosing, baseline)): 663 ± 224 mg/kg/day; Albuminuria ([6]; D14, hu-6g8 3 mg/kg IV at D7): 92.5 ± 95 mg/kg/day; Creatinine Clearance ([6]; D14, hu-6g8 3 mg/kg IV at D7): 168 ± 118 µL/min; UACR (urinary albumin/urinary creatinine ratio) ([6]; D14, hu-6g8 3 mg/kg IV at D7): 2285 ± 2337; Urinary Exosome Excretion ([6]; D14, hu-6g8 3 mg/kg IV at D7): 876 ± 348 mg/kg/day; Observed decrease in neutrophil survival ([7]; patient A02 (Died), incubation 24 hrs, 79 hrs from ARDS diagnosis, baseline DEspR+/CD11b+ 59.2%, P 0.029, listed as anti-DEspR humanized IgG4S228P antibody): decreased survival; baseline DEspR+/CD11b+ neutrophil percentage ([7]; patient A02): 59.2%; Observed decrease in neutrophil survival ([7]; patient A03 (DNR, D.), incubation 24 hrs, 96 hrs from diagnosis, baseline DEspR+/CD11b+ 1.5%): No effect; baseline DEspR+/CD11b+ neutrophil percentage ([7]; patient A03): 1.5%; Observed decrease in neutrophil survival ([7]; patient A04 (Surv), incubation 6 hrs, 96 hrs from diagnosis, baseline DEspR+/CD11b+ 0.9%, listed as ABTM-468): No effect; Observed decrease in neutrophil survival ([7]; patient A04 (Surv), incubation 6 hrs, 96 hrs from diagnosis, baseline DEspR+/CD11b+ 0.9%, listed as anti-DEspR humanized IgG4S228P antibody): no effect; baseline DEspR+/CD11b+ neutrophil percentage ([7]; patient A04): 0.9%; Observed decrease in neutrophil survival ([7]; patient A05 (Surv), incubation 6 hrs, 72 hrs from diagnosis, baseline DEspR+/CD11b+ 3%, listed as ABTM-468): No effect; Observed decrease in neutrophil survival ([7]; patient A05 (Surv), incubation 6 hrs, 72 hrs from diagnosis, baseline DEspR+/CD11b+ 3%, listed as anti-DEspR humanized IgG4S228P antibody): no effect; baseline DEspR+/CD11b+ neutrophil percentage ([7]; patient A05): 3%; Observed decrease in neutrophil survival ([7]; patient A06 (Surv), incubation 6 hrs, 48 hrs from diagnosis, baseline DEspR+/CD11b+ 16.1%, n.s., listed as anti-DEspR humanized IgG4S228P antibody): Some efficacy is observed but variable; baseline DEspR+/CD11b+ neutrophil percentage ([7]; patient A06): 16.1%
